For data set [1], the system named is human gastric cancer cells (SGC-7901). Briefly: MTT cell proliferation / cytotoxicity assay with trypan blue dye exclusion, SGC-7901 cells. The data set is classed as cell-based. The following applies: for activity / inhibition against gastric cancer cells SGC-7901: after 24 and 72 hours of treatment, FIGS. 1A-3B. As to the method:
(§1) In FIGS. 1A-3B, the cells were treated with a concentration of 10 μM of each compound.
(§2) The anti-proliferative effect was measured by MTT assay.
(§3) Six duplicate wells were set up for each sample, and cells untreated with a compound served as a control. Treatment was conducted at 24 and 72 hours, respectively. After incubation, 10 μL MTT (6 g/L, Sigma) was added to each well and the incubation was continued for 4 hours at 37° C. After removal of the medium, MTT stabilization solution (dimethylsulphoxide: ethanol=1:1) was added to each well, and shaken for ten minutes until all crystals were dissolved. Then, optical density was detected in a micro plate reader at 550 nm wavelength using an enzyme-linked immunosorbent assay (ELISA) reader. Each assay was performed in triplicate. Cell number and viability were determined by trypan blue dye exclusion analysis.
(§4) The cytotoxicity assay was performed with various concentrations of the synthesized gold (III) complexes on PC-3 and SGC-7901 cells.

Data set [2] relates to prostate cancer cells (PC-3). Kind of data set: MTT cell proliferation / cytotoxicity assay with trypan blue dye exclusion, PC-3 cells. The data set is classed as cell-based, human. The following applies: for activity / inhibition against human prostate cancer cells (PC-3): after 24 and 72 hours of treatment, FIGS. 1A-3B. As to the method:
as §1, §2, §3, §4

With `N[C@H]1CCCC[C@@H]1N.[Cl][Au]([Cl])[Cl]` [compound 3, (S,S)-(+)-1,2-(DACH)AuCl3], in data set [1] (10 μM), the “activity / inhibition against gastric cancer cells SGC-7901” value is given as “moderate inhibition”. The “bioactivity on SGC-7901 cells, trans-(1R,2R) compared with trans-(1S,2S) isomer” value in data set [1] (conclusion from FIGS. 1A-6B) is on record as “no significant difference in the bioactivity”. Further, the “activity / inhibition against human prostate cancer cells (PC-3)” value (“activity / inhibition … (PC-3)” below) in data set [2] (10 μM) is listed as “moderate inhibition”. In addition, in data set [2] (conclusion from FIGS. 1A-6B), the “bioactivity on PC-3 cells, trans-(1R,2R) compared with trans-(1S,2S) isomer” value is reported as “no significant difference in the bioactivity”.

On to cis-(±)-1,2-(DACH)AuCl3 [compound 1], for which the “activity / inhibition against gastric cancer cells SGC-7901” value in data set [1] (10 μM) was “potentially high activity”. The “cytotoxic effect on SGC-7901 cells, compound 1 compared with compound 2” value in data set [1] (10 μM, one, two and three days, FIG. 7B) is “higher cytotoxic effect in comparison with the same concentration of compound 2”. Also, the “activity / inhibition … (PC-3)” value in data set [2] (10 μM) is reported as “potentially high activity”. Besides, the “cytotoxic effect on PC-3 cells, compound 1 compared with compound 2” value in data set [2] (10 μM, one, two and three days, FIG. 7A) is listed as “higher cytotoxic effect in comparison with the same concentration of compound 2”. The “cell proliferation of PC-3 cells compared with SGC-7901 cells” value in data set [2] (fixed 10 μM, after 72 hours, FIGS. 1A and 1B) is given as “bit higher than that of the SGC-7901 cells”.

For the compound trans-(±)-1,2-(DACH)AuCl3 [compound 2], the “activity / inhibition against gastric cancer cells SGC-7901” value in data set [1] (10 μM) is reported as “moderate inhibition”. Also, the “activity / inhibition … (PC-3)” value in data set [2] (10 μM) is “moderate inhibition”.

Source of the values: US8895611B1, “Cytotoxic compounds for treating cancer” (King Fahd University of Petroleum and Minerals, priority 2013, dated 2014).
